Test results reported in patent US20160090556A1, “PRODUCTS COMPRISING MALODOR REDUCTION MATERIALS” (The Procter & Gamble Company, priority 2014, published 2016).
Where two headings read alike, the source gives them in different places.

Test: Liquid dish neat product liquid-air partition coefficient
Type: physicochemical
[1] = class code letter within Comment Code

SMILES	Log of liquid dish neat product liquid-air partition coefficient (Comment Code K/L) [1]	Comment Code: Log of liquid dish neat product liquid-air partition coefficient (code letters K, L)	Log of liquid dish neat product liquid-air partition coefficient (Comment Code K/L)	also measured
CCCC(=O)OC1CC2CC1C1CC=CC21 (stereo not shown) [Material 484]	K (Log of liquid dish neat product liquid-air partition coefficient greater than or equal to −7)	K (Log of liquid dish neat product liquid-air partition coefficient greater than or equal to −7)	–	–
C=C1CCCC(C)(C)C1C(=O)C=CC (stereo not shown) [Material 331]	K (Log of liquid dish neat product liquid-air partition coefficient greater than or equal to −7)	–	–	–
CCC=CCC=CCCO [Material 929]	–	–	K (Log of liquid dish neat product liquid-air partition coefficient greater than or equal to −7)	–
CC1CC(C)(c2ccccc2)CO1 (stereo not shown) [Material 1006]	–	–	K (Log of liquid dish neat product liquid-air partition coefficient greater than or equal to −7)	–
CCCCC/C=C/C=C\C(=O)OCC [Material 942]	–	–	K (Log of liquid dish neat product liquid-air partition coefficient greater than or equal to −7)	–
C=CCCC(=O)c1ccccc1 [Material 792]	–	–	K (Log of liquid dish neat product liquid-air partition coefficient greater than or equal to −7)	–
COc1cc(C)ccc1O [Material 492]	–	K (Log of liquid dish neat product liquid-air partition coefficient greater than or equal to −7)	–	–
CCCCCCCCCCCC(=O)OCCC(C)C [Material 238]	K (Log of liquid dish neat product liquid-air partition coefficient greater than or equal to −7)	–	–	–
CC(C)=CCC/C(C)=C/CC/C(C)=C/CO [Material 1065]	–	–	K (Log of liquid dish neat product liquid-air partition coefficient greater than or equal to −7)	–
C/C(=C\C#N)CCc1ccccc1 [Material 894]	–	–	K (Log of liquid dish neat product liquid-air partition coefficient greater than or equal to −7)	–
C=CC(C)(CCC=C(C)C)OC(C)=O (stereo not shown) [Material 154]	–	K (Log of liquid dish neat product liquid-air partition coefficient greater than or equal to −7)	–	–
CCCCCCCCCCCCCC(=O)OC [Material 104]	K (Log of liquid dish neat product liquid-air partition coefficient greater than or equal to −7)	–	–	–
COC(Cc1ccccc1)OC [Material 627]	–	K (Log of liquid dish neat product liquid-air partition coefficient greater than or equal to −7)	K (Log of liquid dish neat product liquid-air partition coefficient greater than or equal to −7)	–
C=CC(C)(C#N)Cc1ccccc1 (stereo not shown) [Material 504]	–	K (Log of liquid dish neat product liquid-air partition coefficient greater than or equal to −7)	–	–
Cc1ccc2c(c1)CC(C)(CO)C2 (stereo not shown) [Material 161]	K (Log of liquid dish neat product liquid-air partition coefficient greater than or equal to −7)	–	–	–
CCC(=O)CCC1C(C)=CCCC1(C)C (stereo not shown) [Material 293]	K (Log of liquid dish neat product liquid-air partition coefficient greater than or equal to −7)	–	–	–
CC/C=C\C/C=C\CCO [Material 546]	K (Log of liquid dish neat product liquid-air partition coefficient greater than or equal to −7)	–	–	–
CC(C)=CCC/C(C)=C\CO [Material 64]	K (Log of liquid dish neat product liquid-air partition coefficient greater than or equal to −7)	–	–	–
C=CC(=C)CCCC(C)(C)O [Material 34]	K (Log of liquid dish neat product liquid-air partition coefficient greater than or equal to −7)	–	–	–
C=CCCCCCCC/C=C/CC#N [Material 137]	K (Log of liquid dish neat product liquid-air partition coefficient greater than or equal to −7)	–	–	–
O=Cc1ccc2c(c1)OCO2 [Material 287]	–	K (Log of liquid dish neat product liquid-air partition coefficient greater than or equal to −7)	–	–
CC(=O)CCCC(C)CCCC(C)CCCC(C)C (stereo not shown) [Material 782]	–	–	K (Log of liquid dish neat product liquid-air partition coefficient greater than or equal to −7)	–
CC1C(C)(C)C2=C(C(=O)CCC2)C1(C)C (stereo not shown) [Material 572]	–	–	K (Log of liquid dish neat product liquid-air partition coefficient greater than or equal to −7)	–
CC/C=C\C/C=C/CCO [Material 1072]	–	–	K (Log of liquid dish neat product liquid-air partition coefficient greater than or equal to −7)	–

SMILES	Log of liquid dish neat product liquid-air partition coefficient (Comment Code K/L) [1]	Comment Code: Log of liquid dish neat product liquid-air partition coefficient (code letters K, L)	Log of liquid dish neat product liquid-air partition coefficient (Comment Code K/L)	also measured
C=C1C=CC(C(C)C)CCC(C)=CCC1 (stereo not shown) [Material 296]	K (Log of liquid dish neat product liquid-air partition coefficient greater than or equal to −7)	–	–	–
CC/C=C\CCC1=CCCC1=O [Material 146]	K (Log of liquid dish neat product liquid-air partition coefficient greater than or equal to −7)	–	–	–
CC(C)(O)CCc1ccccc1 [Material 639]	–	–	K (Log of liquid dish neat product liquid-air partition coefficient greater than or equal to −7)	–
c1ccc(Cc2ccccc2)cc1 [Material 429]	K (Log of liquid dish neat product liquid-air partition coefficient greater than or equal to −7)	–	–	–
CCOc1cc(COC)ccc1O [Material 115]	–	K (Log of liquid dish neat product liquid-air partition coefficient greater than or equal to −7)	–	–
CCCCCCCC1CCCC(=O)O1 (stereo not shown) [Material 463]	K (Log of liquid dish neat product liquid-air partition coefficient greater than or equal to −7)	–	–	–
CC(C)(O)Cc1ccccc1 [Material 649]	–	–	K (Log of liquid dish neat product liquid-air partition coefficient greater than or equal to −7)	–
C[C@@H]1CC[C@H]2C(C)(C)[C@H]3C[C@@]12CC[C@@]3(C)O [Material 569]	–	K (Log of liquid dish neat product liquid-air partition coefficient greater than or equal to −7)	K (Log of liquid dish neat product liquid-air partition coefficient greater than or equal to −7)	–
CC(C)=CCCC(C)=CCC1CCCC1=O (stereo not shown) [Material 307]	K (Log of liquid dish neat product liquid-air partition coefficient greater than or equal to −7)	–	–	–
CC(C)Cc1ccc(CC(C)C=O)cc1 (stereo not shown) [Material 1033]	–	–	K (Log of liquid dish neat product liquid-air partition coefficient greater than or equal to −7)	–
O=C1CCCC=CCCCCCCCCCC1 [Material 788]	–	K (Log of liquid dish neat product liquid-air partition coefficient greater than or equal to −7)	K (Log of liquid dish neat product liquid-air partition coefficient greater than or equal to −7)	–
C=C(C)C1CCC2(C)CCCC(=C)C2C1 (stereo not shown) [Material 615]	–	–	K (Log of liquid dish neat product liquid-air partition coefficient greater than or equal to −7)	–
CCC(=O)OC(C)c1ccccc1 (stereo not shown) [Material 96]	–	K (Log of liquid dish neat product liquid-air partition coefficient greater than or equal to −7)	–	–
CC1=CC2C(C(C)C)CCC(C)(O)C2CC1 (stereo not shown) [Material 716]	–	–	K (Log of liquid dish neat product liquid-air partition coefficient greater than or equal to −7)	–
CC(=O)OCC=C(C)CCC=C(C)CCC=C(C)C [Material 368]	K (Log of liquid dish neat product liquid-air partition coefficient greater than or equal to −7)	–	–	–
C=CCCCCCCCCC(=O)OCCC(C)C [Material 234]	K (Log of liquid dish neat product liquid-air partition coefficient greater than or equal to −7)	–	–	–
C=CC(C)(O)CCC=C(C)C (stereo not shown) [Material 157]	–	K (Log of liquid dish neat product liquid-air partition coefficient greater than or equal to −7)	–	–
CC(=O)c1cc2c(cc1C)C(C)(C)C(C)C2(C)C (stereo not shown) [Material 927]	–	K (Log of liquid dish neat product liquid-air partition coefficient greater than or equal to −7)	K (Log of liquid dish neat product liquid-air partition coefficient greater than or equal to −7)	–
C=CC(C)CCCC(C)(C)O (stereo not shown) [Material 437]	–	K (Log of liquid dish neat product liquid-air partition coefficient greater than or equal to −7)	–	–
C=C(C)C1CCC(C)(O)CC1 (stereo not shown) [Material 612]	–	–	K (Log of liquid dish neat product liquid-air partition coefficient greater than or equal to −7)	–
OCCCc1ccccc1 [Material 254]	K (Log of liquid dish neat product liquid-air partition coefficient greater than or equal to −7)	–	–	–
CCC(C)(C)C1CCC(O)CC1 (stereo not shown) [Material 995]	–	K (Log of liquid dish neat product liquid-air partition coefficient greater than or equal to −7)	–	–
C[C@@H]1CC[C@H]2[C@@H]1[C@H]1[C@@H](CC[C@]2(C)O)C1(C)C [Material 1140]	–	K (Log of liquid dish neat product liquid-air partition coefficient greater than or equal to −7)	–	Comment Code: Log of liquid dish neat product liquid-air partition coefficient (codes K/L of the Comment Code, Table 1): K (Log of liquid dish neat product liquid-air partition coefficient greater than or equal to −7)
CC1=CCCC2(C)CCC(C(C)(C)O)CC12 (stereo not shown) [Material 775]	–	K (Log of liquid dish neat product liquid-air partition coefficient greater than or equal to −7)	K (Log of liquid dish neat product liquid-air partition coefficient greater than or equal to −7)	–
